Source: patent publication US20230391727A1, “ANALOGUES OF PENTAMIDINE AND METHODS FOR TREATING INFECTIONS” (Auransa Inc., priority 2020, published 2023)
In brackets after ≈: the same amount, converted by molar mass. Where two headings read alike, the source gives them in different places.

Legend:
[1] = Pharmacokinetic analysis, tissue and plasma exposure; settings: male C57BL6 mice, 10 mg/kg subcutaneous administration; kidney, liver, and lung
Description: To determine whether target concentrations/exposures of these compounds can be achieved at various target organs, exposures of compound 3 were tested in kidney, liver, spleen, lung peritoneal fluid and plasma of male C57BL6 mice (5 mice per group). Compound 3 was dosed at 10 mg/kg subcutaneously with each group having samples taken at time indicated (FIG. 7).

[2] = Anti-fungal MIC assay, summary of first round; type: cell-based; settings: read-out: Isolate MIC (100%); range over isolates of the first round of testing
Description: (§1) The first round of testing included Candida parapsilosis, Candida krusei, Paecilomyces variotii, Candida albicans, Aspergillus fumigatus, and Blastomyces dermatitidis. […] The second round of testing included Candida parapsilosis, Candida krusei, Candida albicans, Candida auris, Candida glabrata, Candida guilliermondii, and Cryptococcus neoformans.
(§2) Stock solutions of the investigational agent were prepared at concentrations 100-times the highest concentration to be tested (6400 μg/ml) using dimethyl sulfoxide. Aliquots of the stock solutions were dispensed into polystyrene vials and stored at −20° C.
The synthetic medium RPMI-1640 (with glutamine, without bicarbonate, and with phenol red) was used. The RPMI was buffered to a pH of 7.0+0.1 at 25° C. with 0.165M MOPS (3-[N-morpholino] propanesulfonic acid). Sterile U-shaped 96-well cell culture plates were used to perform the MIC assays. […]
Fungal isolates were grown on Sabouraud dextrose agar (yeasts) or potato flake agar (filamentous fungi) and cells were collected after an appropriate period of growth for each species being evaluated (e.g., 48-72 hours for yeasts and 7 days for filamentous fungi). The fungi were suspended in sterile distilled water, and the densities of the fungal suspension were read using a spectrophotometer and adjusted to an appropriate optical density specific for each fungal species. […]

K. pneumoniae = assay: Checkerboard assay with rifampicin (FIG. 1); type: cell-based, Klebsiella pneumoniae
Excerpt: As control, pentamidine was used for its synergistic, indifferent or antagonistic interaction with rifampicin in similar conditions. […] In FIG. 1, dark wells indicated growth inhibition of K. pneumoniae and corresponding antibacterial activities of these compounds.

[3] = system: Aspergillus fumigatus AF2; assay: Anti-fungal MIC assay; type: cell-based
Description: as §1, §2
(§3) The synthetic medium RPMI-1640 (with glutamine, without bicarbonate, and with phenol red) was used. The RPMI was buffered to a pH of 7.0+0.1 at 25° C. with 0.165M MOPS (3-[N-morpholino] propanesulfonic acid). Sterile U-shaped 96-well cell culture plates were used to perform the MIC assays. Dilutions of the DMSO stocks were prepared in RPMI to achieve 2× concentrations. After the dilutions of the working 2× investigational antifungal solutions were prepared, 0.1 ml of each concentration was transferred into a pre-specified column of the U-shaped 96-well cell culture plate using sterile pipettes.
(§4) Fungal isolates were grown on Sabouraud dextrose agar (yeasts) or potato flake agar (filamentous fungi) and cells were collected after an appropriate period of growth for each species being evaluated (e.g., 48-72 hours for yeasts and 7 days for filamentous fungi). The fungi were suspended in sterile distilled water, and the densities of the fungal suspension were read using a spectrophotometer and adjusted to an appropriate optical density specific for each fungal species. The fungal suspension of each isolate was then diluted in RPMI. A sufficient volume of the test inoculum was prepared to directly inoculate 0.1 ml into each test well of the 96-well cell culture plate. Final inoculum ranges were dependent on the fungal species to be tested (e.g., 0.4×103 to 5×10^3 cells/ml for yeasts and dimorphic fungi, and 0.4×104 to 5×10^4 cells/ml for filamentous fungi). Each well of the 96-well cell culture plate containing the investigational antifungal compounds (0.1 ml volume) was inoculated on the day of the assay with 0.1 ml of the fungal suspension. Growth control wells contained 0.1 ml of fungal suspension and 0.1 ml of the growth medium without antifungal agents. The media control well contained 0.2 ml of the growth medium.
(§5) The microdilution trays were incubated at 35° C. without agitation. […] One positive comparator/control was used for yeast (fluconazole) and one was used for filamentous fungi (voriconazole).

[4] = system: Cryptococcus neoformans CN3; assay: Anti-fungal MIC assay; type: cell-based
Description: as §1, §2, §3, §4, §5

[5] = system: Paecilomyces variotii MYA-3630; assay: Anti-fungal MIC assay; type: cell-based
Description: as §1, §2, §3, §4, §5

[6] = system: Aspergillus fumigatus AF3; assay: Anti-fungal MIC assay; type: cell-based
Description: as §1, §2, §3, §4, §5

[7] = system: Blastomyces dermatitidis BD1; assay: Anti-fungal MIC assay; type: cell-based
Description: as §1, §2, §3, §4, §5

[8] = system: Aspergillus fumigatus AF293; assay: Anti-fungal MIC assay; type: cell-based
Description: as §1, §2, §3, §4, §5

[9] = system: Candida albicans ATCC90028; assay: Anti-fungal MIC assay; type: cell-based
Description: as §1, §2, §3, §4, §5

Candida albicans CA3 = assay: Anti-fungal MIC assay; type: cell-based
Description: as §1, §2, §3, §4, §5

Candida albicans CA6 = assay: Anti-fungal MIC assay; type: cell-based
Description: as §1, §2, §3, §4, §5

Candida parapsilosis CP1 = assay: Anti-fungal MIC assay; type: cell-based
Description: as §1, §2, §3, §4, §5

Candida parapsilosis CP2 = assay: Anti-fungal MIC assay; type: cell-based; settings: Lodderomyces parapsilosis
Description: as §1, §2, §3, §4, §5

[10] = system: Candida guilliermondii Cgui1; assay: Anti-fungal MIC assay; type: cell-based; settings: Meyerozyma guilliermondii
Description: as §1, §2, §3, §4, §5

[11] = system: Blastomyces dermatitidis BD3; assay: Anti-fungal MIC assay; type: cell-based
Description: as §1, §2, §3, §4, §5

Candida glabrata 05-62 = assay: Anti-fungal MIC assay; type: cell-based
Description: as §1, §2, §3, §4, §5

Candida albicans 43001 = assay: Anti-fungal MIC assay; type: cell-based
Description: as §1, §2, §3, §4, §5

Candida auris DI17-47 = assay: Anti-fungal MIC assay; type: cell-based; settings: Candidozyma auris
Description: as §1, §2, §3, §4, §5

Candida auris DI17-46 = assay: Anti-fungal MIC assay; type: cell-based; settings: Candidozyma auris
Description: as §1, §2, §3, §4, §5

[12] = system: Blastomyces dermatitidis BD2; assay: Anti-fungal MIC assay; type: cell-based
Description: as §1, §2, §3, §4, §5

Candida glabrata 05-761 = assay: Anti-fungal MIC assay; type: cell-based
Description: as §1, §2, §3, §4, §5

[13] = system: 17 clinically relevant bacterial strains; assay: Checkerboard assays with rifampicin, summary over the panel; type: cell-based; settings: compound 3 in combination of rifampicin; 17 test strains
Description: The 17 test strains/isolates were: (1) Serratia marcescens (ATCC 13880); (2) Salmonella typhimurium (ATCC 13311); (3) Salmonella choleraesuis (ATCC 10708); (4) Acinetobacter baumannii (ATCC BAA-1605); (5) A. baumannii (ATCC 17978); (6) A. baumannii (FDA-CDC AR-BANK#0088); (7) Citrobacter freundii (ATCC 8090); (8) Pseudomonas aeruginosa (BCCM 27647); (9) P. aeruginosa (BCCM 27648); (10) Escherichia coli (ATCC 25922); (11) E. coli (ATCC 10536); (12) Stenotrophomonas maltophilia (ATCC 13637); (13) Enterobacter cloacae (ATCC BAA-1143); (14) E. cloacae (ATCC 13047); (15) E. aerogenes (ATCC 13048); (16) Klebsiella pneumoniae (NCTC 13438); and (17) Klebsiella pneumoniae (FDA-CDC AR-BANK#0160). […]
The 17 test strains were grown on nutrient agar or tryptic soy agar (TSA) medium as below. […] The absorbance of the bacterial suspension was measured with a spectrophotometer at OD620nm, and then the suspension was adjusted to 1-2×10^8 CFU/mL in PBS. […] The actual microbial count in the assay ranged from 2˜8×10^5 CFU/mL as determined from dilution plating. […]
Assay plates were incubated and MIC endpoints were read as complete inhibition of visual growth. […]
FIC (Fraction Inhibitory Concentration) and FIC Index (FICI) values for each test condition and the average of FICI values of all pairwise combinations were calculated to determine if synergy or antagonism existed between the two substances. […]

[14] = read-out: MIC, 50% growth inhibition
[15] = read-out: MIC, 100% growth inhibition

N=C(N)c1ccc(CC[C@H]2CCC[C@@H](CCc3ccc(C(=N)N)cc3)C2)cc1 [Compound 3, 4,4′-(2,2′-((1R,3S)-cyclohexane-1,3-diyl)bis(ethane-2,1-diyl))dibenzimidamide]
exposure relative to target concentrations for pharmacology [1]: target concentrations for pharmacology could be achieved
MIC [2]: 1 to 64 µg/mL (≈ 2.66 to 170 µM)
synergistic effect with rifampicin, growth inhibition, compared to pentamidine (K. pneumoniae): superior synergistic effects with rifampicin than pentamidine with rifampicin
MIC [3, 14]: 32 µg/mL (≈ 85 µM)
MIC [3, 15]: 32 µg/mL (≈ 85 µM)
MIC [4, 14]: 0.5 µg/mL (≈ 1.33 µM)
MIC [4, 15]: 0.5 µg/mL (≈ 1.33 µM)
MIC ([5]; MYA3630, read-out: MIC, 50% growth inhibition): 1 µg/mL (≈ 2.66 µM)
MIC ([5]; MYA3630, read-out: MIC, 100% growth inhibition): 1 µg/mL (≈ 2.66 µM)
MIC [6, 14]: 32 µg/mL (≈ 85 µM)
MIC [6, 15]: 64 µg/mL (≈ 170 µM)
MIC [7, 14]: 4 µg/mL (≈ 10.6 µM)
MIC [7, 15]: 8 µg/mL (≈ 21.2 µM)
MIC [8, 14]: 16 µg/mL (≈ 42.5 µM)
MIC [8, 15]: 16 µg/mL (≈ 42.5 µM)
MIC [9, 14]: 0.5 µg/mL (≈ 1.33 µM)
MIC [9, 15]: 1 µg/mL (≈ 2.66 µM)
MIC (Candida albicans CA3; [14]): 1 µg/mL (≈ 2.66 µM)
MIC (Candida albicans CA3; [15]): 1 µg/mL (≈ 2.66 µM)
MIC (Candida albicans CA6; [14]): 0.5 µg/mL (≈ 1.33 µM)
MIC (Candida albicans CA6; [15]): 0.5 µg/mL (≈ 1.33 µM)
MIC (Candida parapsilosis CP1; [14]): 1 µg/mL (≈ 2.66 µM)
MIC (Candida parapsilosis CP1; [15]): 8 µg/mL (≈ 21.2 µM)
MIC (Candida parapsilosis CP2; [14]): 1 µg/mL (≈ 2.66 µM)
MIC (Candida parapsilosis CP2; [15]): 4 µg/mL (≈ 10.6 µM)
MIC [10, 14]: 1 µg/mL (≈ 2.66 µM)
MIC [10, 15]: 1 µg/mL (≈ 2.66 µM)
MIC [11, 14]: 4 µg/mL (≈ 10.6 µM)
MIC [11, 15]: 8 µg/mL (≈ 21.2 µM)
MIC (Candida glabrata 05-62; Nakaseomyces glabratus, 0562, read-out: MIC, 50% growth inhibition): 2 µg/mL (≈ 5.31 µM)
MIC (Candida glabrata 05-62; Nakaseomyces glabratus, 0562, read-out: MIC, 100% growth inhibition): 4 µg/mL (≈ 10.6 µM)
MIC (Candida albicans 43001; [14]): 0.25 µg/mL (≈ 0.664 µM)
MIC (Candida albicans 43001; [15]): 0.5 µg/mL (≈ 1.33 µM)
MIC (Candida auris DI17-47; DI1747, read-out: MIC, 50% growth inhibition): 1 µg/mL (≈ 2.66 µM)
MIC (Candida auris DI17-47; DI1747, read-out: MIC, 100% growth inhibition): 4 µg/mL (≈ 10.6 µM)
MIC (Candida auris DI17-46; DI1746, read-out: MIC, 50% growth inhibition): 2 µg/mL (≈ 5.31 µM)
MIC (Candida auris DI17-46; DI1746, read-out: MIC, 100% growth inhibition): 4 µg/mL (≈ 10.6 µM)
MIC [12, 14]: 2 µg/mL (≈ 5.31 µM)
MIC [12, 15]: 4 µg/mL (≈ 10.6 µM)
MIC (Candida glabrata 05-761; Nakaseomyces glabratus, 05761, read-out: MIC, 50% growth inhibition): 1 µg/mL (≈ 2.66 µM)
MIC (Candida glabrata 05-761; Nakaseomyces glabratus, 05761, read-out: MIC, 100% growth inhibition): 2 µg/mL (≈ 5.31 µM)
combination effect with rifampicin [13]: synergistic effects for most tested strains
